Measured values: PubChem BioAssay AID1745844 (Carcinogenic Potency Database (CPDB), 2022)
Where “and” joins values, the source holds several entries; their conditions need not be identical. Equal values may be shown once. Calls of active or inactive are those of the source. How the calls were made is not given here.

Test system: rodent lifetime carcinogenesis bioassay, tumor incidence TD50
Test: chronic cancer bioassays in animals – CPDB, compiled studies (AID 1745844)
Conditions: inhaled; for carcinogen call: lesion: one or several types, types not named

## C=CC(=C)Cl
hamster, strain Syrian Golden, females, site: any site (literature study), lesion: several types, types named in the paper, dosed 78 weeks, study length 78 weeks
  TD50: 180 mg/kg/day (inactive)
hamster, strain Syrian Golden, females, site: liver, dosed 78 weeks, study length 78 weeks
  carcinogen call: negative (inactive)
hamster, strain Syrian Golden, females, site: lung, dosed 78 weeks, study length 78 weeks
  carcinogen call: negative (inactive)
hamster, strain Syrian Golden, males, site: any site (literature study), lesion: several types, types named in the paper, dosed 78 weeks, study length 78 weeks
  TD50: 110 mg/kg/day (inactive)
hamster, strain Syrian Golden, males, site: liver, dosed 78 weeks, study length 78 weeks
  carcinogen call: negative (inactive)
hamster, strain Syrian Golden, males, site: lung, dosed 78 weeks, study length 78 weeks
  carcinogen call: negative (inactive)
mouse, strain B6C3F1, females, site: Harderian gland, lesion: adenoma + carcinoma, dosed 104 weeks, study length 104 weeks
  TD50: 55.2 mg/kg/day
mouse, strain B6C3F1, females, site: Harderian gland, lesion: adenoma, dosed 104 weeks, study length 104 weeks
  TD50: 61.3 mg/kg/day
mouse, strain B6C3F1, females, site: Zymbal's gland, lesion: carcinoma, dosed 104 weeks, study length 104 weeks
  TD50: 864 mg/kg/day
mouse, strain B6C3F1, females, site: all sites + forestomach + Harderian gland + liver + lung + mesentery + mammary gland + subcutaneous tissue + Zymbal's gland, lesion: hemangioma + hemangiosarcoma + squamous-cell carcinoma + squamous-cell papilloma + adenoma + carcinoma + hepatocellular adenoma + hepa, dosed 104 weeks, study length 104 weeks
  TD50: 4 mg/kg/day
mouse, strain B6C3F1, females, site: all sites, lesion: hemangioma + hemangiosarcoma, dosed 104 weeks, study length 104 weeks
  TD50: 21.5 mg/kg/day
mouse, strain B6C3F1, females, site: all sites, lesion: hemangioma, dosed 104 weeks, study length 104 weeks
  TD50: 134 mg/kg/day
mouse, strain B6C3F1, females, site: all sites, lesion: hemangiosarcoma, dosed 104 weeks, study length 104 weeks
  TD50: 22.2 mg/kg/day
mouse, strain B6C3F1, females, site: any site (literature study), lesion: several types, types named in the paper, dosed 104 weeks, study length 104 weeks
  TD50: 3.92 mg/kg/day
mouse, strain B6C3F1, females, site: forestomach, lesion: squamous-cell carcinoma + squamous-cell papilloma, dosed 104 weeks, study length 104 weeks
  TD50: 332 mg/kg/day
mouse, strain B6C3F1, females, site: liver, lesion: hepatocellular adenoma + hepatoblastoma + hepatocellular carcinoma, dosed 104 weeks, study length 104 weeks
  TD50: 7.07 mg/kg/day
mouse, strain B6C3F1, females, site: liver, lesion: hepatocellular adenoma + hepatocellular carcinoma, dosed 104 weeks, study length 104 weeks
  TD50: 7.07 mg/kg/day
mouse, strain B6C3F1, females, site: liver, lesion: hepatocellular adenoma, dosed 104 weeks, study length 104 weeks
  TD50: 19.8 mg/kg/day
mouse, strain B6C3F1, females, site: liver, lesion: hepatocellular carcinoma, dosed 104 weeks, study length 104 weeks
  TD50: 15.2 mg/kg/day
mouse, strain B6C3F1, females, site: lung, lesion: alveolar/bronchiolar adenoma + alveolar/bronchiolar carcinoma, dosed 104 weeks, study length 104 weeks
  TD50: 5.36 mg/kg/day
mouse, strain B6C3F1, females, site: lung, lesion: alveolar/bronchiolar adenoma, dosed 104 weeks, study length 104 weeks
  TD50: 8.65 mg/kg/day
mouse, strain B6C3F1, females, site: lung, lesion: alveolar/bronchiolar carcinoma, dosed 104 weeks, study length 104 weeks
  TD50: 14.6 mg/kg/day
mouse, strain B6C3F1, females, site: mammary gland, lesion: adenoma + carcinoma, dosed 104 weeks, study length 104 weeks
  TD50: 65.6 mg/kg/day
mouse, strain B6C3F1, females, site: mammary gland, lesion: carcinoma, dosed 104 weeks, study length 104 weeks
  TD50: 75.3 mg/kg/day
mouse, strain B6C3F1, females, site: mesentery, lesion: hemangioma + hemangiosarcoma, dosed 104 weeks, study length 104 weeks
  TD50: 25.9 mg/kg/day
mouse, strain B6C3F1, females, site: mesentery, lesion: hemangiosarcoma, dosed 104 weeks, study length 104 weeks
  TD50: 32.2 mg/kg/day
mouse, strain B6C3F1, females, site: mesentery, lesion: sarcoma, dosed 104 weeks, study length 104 weeks
  TD50: 40 mg/kg/day
mouse, strain B6C3F1, females, site: pituitary gland, lesion: pars distalis adenoma, dosed 104 weeks, study length 104 weeks
  TD50: 68.1 mg/kg/day
mouse, strain B6C3F1, females, site: subcutaneous tissue, lesion: sarcoma, dosed 104 weeks, study length 104 weeks
  TD50: 28.9 mg/kg/day
mouse, strain B6C3F1, females, site: uterus, lesion: endometrial stromal polyp, dosed 104 weeks, study length 104 weeks
  TD50: 133 mg/kg/day
mouse, strain B6C3F1, males, site: Harderian gland, lesion: adenoma + adenoma, bilateral + carcinoma, dosed 104 weeks, study length 104 weeks
  TD50: 60.9 mg/kg/day
mouse, strain B6C3F1, males, site: Harderian gland, lesion: adenoma + adenoma, bilateral, dosed 104 weeks, study length 104 weeks
  TD50: 79.5 mg/kg/day
mouse, strain B6C3F1, males, site: all sites + forestomach + Harderian gland + lung, lesion: hemangioma + hemangiosarcoma + squamous-cell carcinoma + squamous-cell papilloma + adenoma + adenoma, bilateral + carcinoma + alveolar, dosed 104 weeks, study length 104 weeks
  TD50: 8.68 mg/kg/day
mouse, strain B6C3F1, males, site: all sites, lesion: hemangioma + hemangiosarcoma, dosed 104 weeks, study length 104 weeks
  TD50: 17.9 mg/kg/day and 21.3 mg/kg/day
mouse, strain B6C3F1, males, site: all sites, lesion: hemangiosarcoma, dosed 104 weeks, study length 104 weeks
  TD50: 19.1 mg/kg/day and 23.8 mg/kg/day
mouse, strain B6C3F1, males, site: any site (literature study), lesion: several types, types named in the paper, dosed 104 weeks, study length 104 weeks
  TD50: 28.4 mg/kg/day
mouse, strain B6C3F1, males, site: forestomach, lesion: squamous-cell carcinoma + squamous-cell papilloma, dosed 104 weeks, study length 104 weeks
  TD50: 291 mg/kg/day
mouse, strain B6C3F1, males, site: forestomach, lesion: squamous-cell papilloma, dosed 104 weeks, study length 104 weeks
  TD50: 335 mg/kg/day
mouse, strain B6C3F1, males, site: kidney, lesion: tubule adenoma, dosed 104 weeks, study length 104 weeks
  TD50: 301 mg/kg/day and 129 mg/kg/day
mouse, strain B6C3F1, males, site: liver, lesion: hemangiosarcoma, dosed 104 weeks, study length 104 weeks
  TD50: 123 mg/kg/day
mouse, strain B6C3F1, males, site: liver, lesion: hepatoblastoma + hepatocellular carcinoma, dosed 104 weeks, study length 104 weeks
  TD50: 19.5 mg/kg/day
mouse, strain B6C3F1, males, site: liver, lesion: hepatocellular adenoma + hepatoblastoma + hepatocellular carcinoma, dosed 104 weeks, study length 104 weeks
  TD50: 39.9 mg/kg/day
mouse, strain B6C3F1, males, site: liver, lesion: hepatocellular adenoma + hepatocellular carcinoma, dosed 104 weeks, study length 104 weeks
  TD50: 42.5 mg/kg/day
mouse, strain B6C3F1, males, site: liver, lesion: hepatocellular adenoma, dosed 104 weeks, study length 104 weeks
  TD50: 71.9 mg/kg/day
mouse, strain B6C3F1, males, site: liver, lesion: hepatocellular carcinoma, dosed 104 weeks, study length 104 weeks
  TD50: 21.6 mg/kg/day
mouse, strain B6C3F1, males, site: lung, lesion: alveolar/bronchiolar adenoma + alveolar/bronchiolar carcinoma, dosed 104 weeks, study length 104 weeks
  TD50: 17.2 mg/kg/day
mouse, strain B6C3F1, males, site: lung, lesion: alveolar/bronchiolar adenoma, dosed 104 weeks, study length 104 weeks
  TD50: 30.7 mg/kg/day
mouse, strain B6C3F1, males, site: lung, lesion: alveolar/bronchiolar carcinoma, dosed 104 weeks, study length 104 weeks
  TD50: 26.4 mg/kg/day
mouse, strain B6C3F1, males, site: mesentery, lesion: hemangioma + hemangiosarcoma, dosed 104 weeks, study length 104 weeks
  TD50: 37.6 mg/kg/day
mouse, strain B6C3F1, males, site: mesentery, lesion: hemangiosarcoma, dosed 104 weeks, study length 104 weeks
  TD50: 39 mg/kg/day
mouse, strain B6C3F1, males, site: subcutaneous tissue, lesion: hemangiosarcoma, dosed 104 weeks, study length 104 weeks
  TD50: 177 mg/kg/day
rat, strain Fischer 344, females, site: all sites, lesion: mononuclear-cell leukemia, dosed 104 weeks, study length 104 weeks
  TD50: 30.4 mg/kg/day
rat, strain Fischer 344, females, site: any site (literature study), lesion: several types, types named in the paper, dosed 104 weeks, study length 104 weeks
  TD50: 25.4 mg/kg/day
rat, strain Fischer 344, females, site: clitoral gland, lesion: adenoma + adenoma, bilateral + carcinoma + carcinoma, bilateral, dosed 104 weeks, study length 104 weeks
  TD50: 7.14 mg/kg/day
rat, strain Fischer 344, females, site: clitoral gland, lesion: carcinoma + carcinoma, bilateral, dosed 104 weeks, study length 104 weeks
  TD50: 12.4 mg/kg/day
rat, strain Fischer 344, females, site: kidney, lesion: tubule adenoma + tubule carcinoma, dosed 104 weeks, study length 104 weeks
  TD50: 183 mg/kg/day
rat, strain Fischer 344, females, site: kidney, lesion: tubule adenoma, dosed 104 weeks, study length 104 weeks
  TD50: 461 mg/kg/day and 183 mg/kg/day
rat, strain Fischer 344, females, site: lung, lesion: alveolar/bronchiolar adenoma, dosed 104 weeks, study length 104 weeks
  TD50: 279 mg/kg/day
rat, strain Fischer 344, females, site: mammary gland, lesion: carcinoma + fibroadenoma, dosed 104 weeks, study length 104 weeks
  TD50: 20.4 mg/kg/day
rat, strain Fischer 344, females, site: mammary gland, lesion: fibroadenoma, dosed 104 weeks, study length 104 weeks
  TD50: 16.3 mg/kg/day
rat, strain Fischer 344, females, site: oral mucosa + gingiva + mammary gland + pharynx + thyroid gland + tongue, lesion: squamous-cell papilloma + carcinoma + fibroadenoma + squamous-cell carcinoma + follicular-cell adenoma + follicular-cell carcinoma, dosed 104 weeks, study length 104 weeks
  TD50: 23.3 mg/kg/day
rat, strain Fischer 344, females, site: oral mucosa + gingiva + pharynx + tongue, lesion: squamous-cell papilloma + squamous-cell carcinoma, dosed 104 weeks, study length 104 weeks
  TD50: 33.9 mg/kg/day
rat, strain Fischer 344, females, site: oral mucosa + gingiva + pharynx + tongue, lesion: squamous-cell papilloma, dosed 104 weeks, study length 104 weeks
  TD50: 61.2 mg/kg/day
rat, strain Fischer 344, females, site: pharynx + tongue, lesion: squamous-cell carcinoma, dosed 104 weeks, study length 104 weeks
  TD50: 77.8 mg/kg/day
rat, strain Fischer 344, females, site: thyroid gland, lesion: follicular-cell adenoma + follicular-cell carcinoma, dosed 104 weeks, study length 104 weeks
  TD50: 113 mg/kg/day
rat, strain Fischer 344, females, site: tongue, lesion: squamous-cell carcinoma + squamous-cell papilloma, dosed 104 weeks, study length 104 weeks
  TD50: 32.9 mg/kg/day
rat, strain Fischer 344, females, site: tongue, lesion: squamous-cell carcinoma, dosed 104 weeks, study length 104 weeks
  TD50: 91.1 mg/kg/day
rat, strain Fischer 344, females, site: tongue, lesion: squamous-cell papilloma, dosed 104 weeks, study length 104 weeks
  TD50: 53.5 mg/kg/day
rat, strain Fischer 344, females, site: urinary bladder, lesion: transitional-cell carcinoma, dosed 104 weeks, study length 104 weeks
  TD50: 467 mg/kg/day
rat, strain Fischer 344, males, site: all sites, lesion: mesothelioma, malignant, dosed 104 weeks, study length 104 weeks
  TD50: 27.1 mg/kg/day
rat, strain Fischer 344, males, site: any site (literature study), lesion: several types, types named in the paper, dosed 104 weeks, study length 104 weeks
  TD50: 6.12 mg/kg/day
rat, strain Fischer 344, males, site: kidney, lesion: tubule adenoma + tubule carcinoma, dosed 104 weeks, study length 104 weeks
  TD50: 16.1 mg/kg/day
rat, strain Fischer 344, males, site: kidney, lesion: tubule adenoma, dosed 104 weeks, study length 104 weeks
  TD50: 38.9 mg/kg/day and 15.4 mg/kg/day
rat, strain Fischer 344, males, site: lung, lesion: alveolar/bronchiolar adenoma + alveolar/bronchiolar carcinoma, dosed 104 weeks, study length 104 weeks
  TD50: 23.8 mg/kg/day
rat, strain Fischer 344, males, site: lung, lesion: alveolar/bronchiolar carcinoma, dosed 104 weeks, study length 104 weeks
  TD50: 24.5 mg/kg/day
rat, strain Fischer 344, males, site: oral mucosa + gingiva + lung + pharynx + thyroid gland + tongue, lesion: squamous-cell papilloma + alveolar/bronchiolar adenoma + alveolar/bronchiolar carcinoma + follicular-cell adenoma + follicular-c, dosed 104 weeks, study length 104 weeks
  TD50: 5.79 mg/kg/day
rat, strain Fischer 344, males, site: oral mucosa + gingiva + pharynx + tongue, lesion: squamous-cell papilloma + squamous-cell carcinoma, dosed 104 weeks, study length 104 weeks
  TD50: 10.1 mg/kg/day
rat, strain Fischer 344, males, site: oral mucosa + gingiva + pharynx + tongue, lesion: squamous-cell papilloma, dosed 104 weeks, study length 104 weeks
  TD50: 11.1 mg/kg/day
rat, strain Fischer 344, males, site: oral mucosa + gingiva + pharynx, lesion: squamous-cell papilloma, dosed 104 weeks, study length 104 weeks
  TD50: 39.2 mg/kg/day
rat, strain Fischer 344, males, site: thyroid gland, lesion: c-cell adenoma, dosed 104 weeks, study length 104 weeks
  TD50: 20 mg/kg/day
rat, strain Fischer 344, males, site: thyroid gland, lesion: follicular-cell adenoma + follicular-cell carcinoma, dosed 104 weeks, study length 104 weeks
  TD50: 18.7 mg/kg/day
rat, strain Fischer 344, males, site: thyroid gland, lesion: follicular-cell adenoma, dosed 104 weeks, study length 104 weeks
  TD50: 22 mg/kg/day
rat, strain Fischer 344, males, site: tongue, lesion: squamous-cell carcinoma + squamous-cell papilloma, dosed 104 weeks, study length 104 weeks
  TD50: 13.6 mg/kg/day
rat, strain Fischer 344, males, site: tongue, lesion: squamous-cell papilloma, dosed 104 weeks, study length 104 weeks
  TD50: 15.6 mg/kg/day
rat, strain Fischer 344, males, site: urinary bladder, lesion: transitional-cell carcinoma, dosed 104 weeks, study length 104 weeks
  TD50: 99.9 mg/kg/day
rat, strain Fischer 344, males, site: urinary bladder, lesion: transitional-cell papilloma, dosed 104 weeks, study length 104 weeks
  TD50: 468 mg/kg/day
rat, strain Wistar-random, females, site: any site (literature study), lesion: several types, types named in the paper, dosed 104 weeks, study length 104 weeks
  TD50: 37.4 mg/kg/day (inactive)
rat, strain Wistar-random, females, site: liver, dosed 104 weeks, study length 104 weeks
  carcinogen call: negative (inactive)
rat, strain Wistar-random, females, site: mammary gland, lesion: fibroadenoma, dosed 104 weeks, study length 104 weeks
  TD50: 55.1 mg/kg/day (inactive)
rat, strain Wistar-random, males, site: any site (literature study), lesion: several types, types named in the paper, dosed 104 weeks, study length 104 weeks
  TD50: 66.4 mg/kg/day (inactive)
rat, strain Wistar-random, males, site: liver, dosed 104 weeks, study length 104 weeks
  carcinogen call: negative (inactive)
